Assay results reported in PMC5192239 (Data in Brief, 2016).

Experiments:
[1] = target: T1, human phosphoglucomutase 1 (hPGM1) (Homo sapiens, UniProt P36871); assay: ESI-MS of intact purified protein:[…] phosphorylation of active site serine after incubation; type: biochemical
T1 construct: gene PGM1
T1 sequence (P36871 1-562): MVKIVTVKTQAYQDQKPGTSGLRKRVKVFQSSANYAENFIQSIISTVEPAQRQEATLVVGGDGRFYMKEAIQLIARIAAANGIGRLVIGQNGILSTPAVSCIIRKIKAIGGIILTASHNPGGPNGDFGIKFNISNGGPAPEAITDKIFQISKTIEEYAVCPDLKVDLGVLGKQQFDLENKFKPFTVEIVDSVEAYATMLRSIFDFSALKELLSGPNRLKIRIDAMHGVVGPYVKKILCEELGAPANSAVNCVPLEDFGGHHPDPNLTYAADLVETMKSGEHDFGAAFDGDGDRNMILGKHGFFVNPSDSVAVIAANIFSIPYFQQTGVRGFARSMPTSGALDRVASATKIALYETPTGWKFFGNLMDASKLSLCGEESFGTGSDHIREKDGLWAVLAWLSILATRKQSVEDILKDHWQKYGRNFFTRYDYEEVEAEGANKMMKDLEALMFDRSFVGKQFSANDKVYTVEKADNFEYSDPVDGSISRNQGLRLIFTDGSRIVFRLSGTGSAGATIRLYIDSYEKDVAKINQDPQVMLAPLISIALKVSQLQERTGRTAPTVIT

[2] = target: T2, Pseudomonas aeruginosa PMM/PGM (PaPMM) (Pseudomonas aeruginosa, UniProt P26276); assay: product formation in coupled G6PDH assay; ESI-MS dephosphorylation of catalytic serine ([…]); type: biochemical
T2 construct: gene algC

[3] = target: T2, Pseudomonas aeruginosa PMM/PGM (PaPMM); assay: coupled G6PDH enzyme assay, noncompetitive inhibition fit; also ESI-MS dephosphorylation of active site serine; type: biochemical
[4] = target: T2, Pseudomonas aeruginosa PMM/PGM (PaPMM); assay: coupled G6PDH enzyme assay, competitive inhibition fit (text prints Ki in μM; Fig. […] legend prints mM); type: biochemical
[5] = test system: O=P(O)(O)O[C@H]1O[C@H](CO)[C@@H](O)[C@H](O)[C@H]1O; assay: purified protein

T2 sequence (P26276 2-463): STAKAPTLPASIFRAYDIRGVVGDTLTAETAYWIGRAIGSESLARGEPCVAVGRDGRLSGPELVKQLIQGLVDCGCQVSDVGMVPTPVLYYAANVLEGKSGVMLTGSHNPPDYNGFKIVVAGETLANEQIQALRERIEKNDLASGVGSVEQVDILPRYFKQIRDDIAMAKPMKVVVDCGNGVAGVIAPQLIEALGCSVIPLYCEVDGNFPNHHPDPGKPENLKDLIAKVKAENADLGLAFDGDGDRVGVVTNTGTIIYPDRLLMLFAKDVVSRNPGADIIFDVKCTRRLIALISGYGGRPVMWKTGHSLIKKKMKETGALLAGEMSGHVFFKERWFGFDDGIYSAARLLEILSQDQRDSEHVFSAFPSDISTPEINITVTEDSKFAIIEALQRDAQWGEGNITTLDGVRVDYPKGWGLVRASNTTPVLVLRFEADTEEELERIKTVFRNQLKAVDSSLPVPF

O=C(COP(=O)(O)O)[C@@H](O)[C@H](O)[C@H](O)COP(=O)(O)O [F16P, fructose 1,6-bisphosphate]
ESI-MS of intact purified protein: 92% phosphorylation of active site serine aft [1]: Treatment of hPGM1 with F16P was done herein

O=C[C@H](O)[C@@H](O)[C@H](O)[C@H](O)COP(=O)(O)O [G6P, glucose 6-phosphate]
product formation in coupled G6PDH assay; ESI-MS dephosphorylation of catalytic [2]: Enzymatic activity of PaPMM was quantified by measuring the formation of glucose 6-phosphate (G6P)

N[C@H]1C(OP(=O)(O)O)O[C@H](CO)[C@@H](O)[C@@H]1O (some centres unmarked) [GlcN1P, glucosamine 1-phosphate]
Ki [3]: 307 ± 29 µM

O=P(O)(O)O[C@H]1OC[C@@H](O)[C@H](O)[C@H]1O [X1P, xylose 1-phosphate]
Ki [4]: 8.6 ± 0.3 µM

Pseudomonas aeruginosa PMM/PGM (PaPMM) (Pseudomonas aeruginosa PAO1)
Km [5]: 28 ± 2.8 µM
